Assay results: ChEMBL document CHEMBL1909046, “DrugMatrix in vitro pharmacology data”

Legend:
[1] = target: T1, Calcitonin receptor (Homo sapiens, UniProt P30988); assay type: cell membranes, Membrane; conditions: t47d; further: in other assays of this panel Not Active means under 50% inhibition at 10 µM
T1 sequence (P30988 whole entry): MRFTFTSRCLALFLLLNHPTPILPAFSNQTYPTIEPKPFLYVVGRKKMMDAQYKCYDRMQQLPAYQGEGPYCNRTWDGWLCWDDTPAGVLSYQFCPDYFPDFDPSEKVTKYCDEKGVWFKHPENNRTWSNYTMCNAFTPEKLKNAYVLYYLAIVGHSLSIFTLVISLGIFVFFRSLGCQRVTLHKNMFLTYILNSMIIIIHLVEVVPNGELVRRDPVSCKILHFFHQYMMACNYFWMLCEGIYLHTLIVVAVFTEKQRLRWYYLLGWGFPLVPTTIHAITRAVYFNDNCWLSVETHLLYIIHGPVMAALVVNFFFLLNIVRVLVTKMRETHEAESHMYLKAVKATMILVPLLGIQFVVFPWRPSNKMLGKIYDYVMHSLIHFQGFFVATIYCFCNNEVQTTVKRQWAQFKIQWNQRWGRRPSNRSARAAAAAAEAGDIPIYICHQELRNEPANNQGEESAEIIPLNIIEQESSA

[2] = DRUGMATRIX: Sigma2 radioligand binding (ligand: [3H] Ifenprodil); assay type: cell membranes, Rattus norvegicus, Wistar, Brain, Membrane; conditions: Not Active = under 50% inhibition at 10 µM
[3] = DRUGMATRIX: Tumor Necrosis Factor (TNF), Non-Selective radioligand binding (ligand: [125I] TNF-alpha); assay type: cell membranes, Membrane; conditions: u-937; Not Active = under 50% inhibition at 10 µM
[4] = target: Prostaglandin G/H synthase 1 (Homo sapiens, UniProt P23219); assay: biochemical; assay type: tissue-based, Platelet; conditions: platelet;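 further: inhibition of COX-1 enzyme activity, with arachidonic acid supplied as substrate; in other assays of this panel Not Active means under 50% inhibition at 10 µM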
Prostaglandin G/H synthase 1, sequence (P23219 whole entry): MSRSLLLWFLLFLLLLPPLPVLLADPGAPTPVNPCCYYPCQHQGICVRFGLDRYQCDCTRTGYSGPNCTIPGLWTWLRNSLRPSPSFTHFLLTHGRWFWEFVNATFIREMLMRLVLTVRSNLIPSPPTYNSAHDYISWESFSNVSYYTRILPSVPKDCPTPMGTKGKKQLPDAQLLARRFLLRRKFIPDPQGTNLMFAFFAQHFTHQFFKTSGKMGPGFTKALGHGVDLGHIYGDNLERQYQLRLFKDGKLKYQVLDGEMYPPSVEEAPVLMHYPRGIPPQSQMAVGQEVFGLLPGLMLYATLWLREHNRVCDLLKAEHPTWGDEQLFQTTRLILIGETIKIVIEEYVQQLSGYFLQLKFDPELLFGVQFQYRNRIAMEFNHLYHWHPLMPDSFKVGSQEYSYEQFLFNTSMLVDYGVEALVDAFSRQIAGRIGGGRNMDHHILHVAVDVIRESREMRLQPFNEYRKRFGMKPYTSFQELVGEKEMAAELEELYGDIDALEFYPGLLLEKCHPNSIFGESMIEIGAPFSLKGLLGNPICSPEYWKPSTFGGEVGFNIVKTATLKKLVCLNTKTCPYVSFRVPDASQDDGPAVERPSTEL

[5] = target: Melanocortin receptor 3 (Homo sapiens, UniProt P41968); assay type: cell membranes, HEK293, Membrane; conditions: hek293; further: in other assays of this panel Not Active means under 50% inhibition at 10 µM
Melanocortin receptor 3, sequence (P41968 whole entry): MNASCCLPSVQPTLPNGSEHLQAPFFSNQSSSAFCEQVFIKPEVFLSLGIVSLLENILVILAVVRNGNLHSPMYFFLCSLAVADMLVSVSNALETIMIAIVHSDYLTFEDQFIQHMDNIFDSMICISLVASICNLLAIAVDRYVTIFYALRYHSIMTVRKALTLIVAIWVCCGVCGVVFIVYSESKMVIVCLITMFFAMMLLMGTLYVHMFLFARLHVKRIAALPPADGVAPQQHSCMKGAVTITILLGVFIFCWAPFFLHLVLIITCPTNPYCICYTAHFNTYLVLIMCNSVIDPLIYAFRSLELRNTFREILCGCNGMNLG

[6] = DRUGMATRIX: Platelet-Derived Growth Factor (PDGF) radioligand binding (ligand: [125I] PDGF); assay type: cell-based; conditions: nih3t3; Not Active = under 50% inhibition at 10 µM
[7] = target: Protein kinase C alpha type (Homo sapiens, UniProt P17252); assay type: cell-based; conditions: sf9;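 further: inhibition of PKCalpha kinase activity measured in an enzyme assay with histone as the phosphorylation substrate; in other assays of this panel Not Active means under 50% inhibition at 10 µM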

NC[C@H]1CC[C@H](C(=O)O)CC1 [TRANEXAMIC ACID]
Not Active: IC50 [1] | IC50 [2] | Ki [2] | IC50 [3] | Ki [3] | IC50 [4] | IC50 [5] | IC50 [6] | Ki [6] | IC50 [7]

CC1(C)O[C@@H]2C[C@H]3[C@@H]4CCC5=CC(=O)C=C[C@]5(C)[C@@]4(F)[C@@H](O)C[C@]3(C)[C@]2(C(=O)CO)O1 [TRIAMCINOLONE ACETONIDE]
Not Active: IC50 [1] | IC50 [2] | Ki [2] | IC50 [3] | Ki [3] | IC50 [4] | IC50 [5] | IC50 [6] | Ki [6] | IC50 [7]

NS(=O)(=O)c1cc2c(cc1Cl)NC(C(Cl)Cl)NS2(=O)=O (centres undefined) [TRICHLORMETHIAZIDE]
Not Active: IC50 [1] | IC50 [2] | Ki [2] | IC50 [3] | Ki [3] | IC50 [4] | IC50 [5] | IC50 [6] | Ki [6] | IC50 [7]

Cc1c(C)c2c(c(C)c1O)CCC(C)(COc1ccc(CC3SC(=O)NC3=O)cc1)O2 (centres undefined) [TROGLITAZONE]
Not Active: IC50 [1] | IC50 [2] | Ki [2] | IC50 [3] | Ki [3] | IC50 [4] | IC50 [5] | IC50 [6] | Ki [6] | IC50 [7]

N[C@@H]1[C@H]2CN(c3nc4c(cc3F)c(=O)c(C(=O)O)cn4-c3ccc(F)cc3F)C[C@@H]12 [TROVAFLOXACIN]
Not Active: IC50 [1] | IC50 [2] | Ki [2] | IC50 [3] | Ki [3] | IC50 [4] | IC50 [5] | IC50 [6] | Ki [6] | IC50 [7]

N#CC(C#N)=Cc1ccc(O)c(O)c1 [TYRPHOSTIN 23]
Not Active: IC50 [1] | IC50 [2] | Ki [2] | IC50 [3] | Ki [3] | IC50 [4] | IC50 [5] | IC50 [6] | Ki [6] | IC50 [7]

CC[C@]1(O)C[C@H]2CN(CCc3c([nH]c4ccccc34)[C@@](C(=O)OC)(c3cc4c(cc3OC)N(C=O)[C@H]3[C@@](O)(C(=O)OC)[C@H](OC(C)=O)[C@]5(CC)C=CCN6CC[C@]43[C@@H]65)C2)C1 [VINCRISTINE]
Not Active: IC50 [1] | IC50 [2] | Ki [2] | IC50 [3] | Ki [3] | IC50 [4] | IC50 [5] | IC50 [6] | Ki [6] | IC50 [7]

CCCOc1ccccc1-c1nc2nn[nH]c2c(=O)[nH]1 [ZAPRINAST]
Not Active: IC50 [1] | IC50 [2] | Ki [2] | IC50 [3] | Ki [3] | IC50 [4] | IC50 [5] | IC50 [6] | Ki [6] | IC50 [7]

SODIUM NITROPRUSSIDE
Not Active: IC50 [1] | Ki [1] | IC50 [2] | Ki [2] | IC50 [3] | Ki [3] | IC50 [4] | Ki [4] | IC50 [5] | Ki [5] | IC50 [6] | Ki [6] | IC50 [7] | Ki [7]
